The values that follow come from ChEMBL document CHEMBL3853264 (Medchemcomm, 2016).

For series [1], the target named is T1, Solute carrier family 22 member 12 (Homo sapiens, UniProt Q96S37).
T1 sequence (Q96S37 whole entry): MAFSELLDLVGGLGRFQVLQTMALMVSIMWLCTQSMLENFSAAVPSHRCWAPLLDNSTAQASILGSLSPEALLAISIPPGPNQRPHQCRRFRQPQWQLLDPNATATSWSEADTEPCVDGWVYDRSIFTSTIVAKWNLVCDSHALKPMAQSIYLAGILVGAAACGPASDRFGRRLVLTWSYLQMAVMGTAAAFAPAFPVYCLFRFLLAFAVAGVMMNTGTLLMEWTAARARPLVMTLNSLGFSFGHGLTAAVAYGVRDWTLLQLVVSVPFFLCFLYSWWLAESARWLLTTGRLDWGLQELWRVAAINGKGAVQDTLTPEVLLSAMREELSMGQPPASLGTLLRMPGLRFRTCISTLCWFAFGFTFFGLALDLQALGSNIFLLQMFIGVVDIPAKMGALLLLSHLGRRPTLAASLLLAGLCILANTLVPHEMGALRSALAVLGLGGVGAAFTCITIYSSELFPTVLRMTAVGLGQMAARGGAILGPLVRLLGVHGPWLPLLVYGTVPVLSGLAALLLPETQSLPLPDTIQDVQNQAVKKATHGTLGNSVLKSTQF
In words: Inhibition of human C-terminal eGFP-tagged URAT1 long isoform expressed in CHO cells assessed as decrease in [14C]-uric acid uptake preincubated for 15 mins followed by [14C]-uric acid addition and incubated in dark for 3 hrs by scintillation counting method. In kind it is cell-based.

A short description of series [2]: Fraction unbound in dog plasma. It counts as ADME, cell-free, Canis lupus familiaris.
The target in a further series is Cytochrome P450 2C19 (Homo sapiens, UniProt P33261). In words: Inhibition of CYP2C19 (unknown origin). It counts as ADME.
Chain of Cytochrome P450 2C19 (P33261 whole entry): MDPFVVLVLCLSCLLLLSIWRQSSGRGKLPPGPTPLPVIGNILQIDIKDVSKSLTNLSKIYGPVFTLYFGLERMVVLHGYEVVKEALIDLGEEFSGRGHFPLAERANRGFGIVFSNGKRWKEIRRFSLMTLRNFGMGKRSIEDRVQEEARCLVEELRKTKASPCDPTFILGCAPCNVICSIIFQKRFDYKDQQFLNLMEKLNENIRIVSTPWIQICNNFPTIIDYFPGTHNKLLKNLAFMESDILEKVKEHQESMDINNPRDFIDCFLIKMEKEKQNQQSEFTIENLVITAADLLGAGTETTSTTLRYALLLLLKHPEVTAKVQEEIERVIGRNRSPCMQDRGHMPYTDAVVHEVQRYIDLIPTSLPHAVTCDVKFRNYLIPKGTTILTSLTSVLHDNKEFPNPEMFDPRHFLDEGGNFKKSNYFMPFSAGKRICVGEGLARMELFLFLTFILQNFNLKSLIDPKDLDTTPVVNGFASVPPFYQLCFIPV
Another series deals with Cytochrome P450 3A4 (Homo sapiens, UniProt P08684). Nature of the series: Inhibition of CYP3A4 (unknown origin). In kind it is ADME.
Chain of Cytochrome P450 3A4 (P08684 whole entry): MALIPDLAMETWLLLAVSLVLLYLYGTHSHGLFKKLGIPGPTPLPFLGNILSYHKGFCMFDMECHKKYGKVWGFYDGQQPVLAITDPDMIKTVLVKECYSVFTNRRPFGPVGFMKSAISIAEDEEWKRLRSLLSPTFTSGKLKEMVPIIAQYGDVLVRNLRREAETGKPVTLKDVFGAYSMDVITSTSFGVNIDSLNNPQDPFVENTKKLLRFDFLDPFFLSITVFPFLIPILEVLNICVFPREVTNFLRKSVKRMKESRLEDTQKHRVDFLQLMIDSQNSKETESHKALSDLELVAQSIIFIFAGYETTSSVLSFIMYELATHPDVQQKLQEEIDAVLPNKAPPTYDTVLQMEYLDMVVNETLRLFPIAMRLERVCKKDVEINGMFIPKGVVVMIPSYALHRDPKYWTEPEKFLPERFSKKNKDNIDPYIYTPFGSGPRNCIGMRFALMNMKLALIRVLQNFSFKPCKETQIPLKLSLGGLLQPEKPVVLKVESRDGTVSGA
Series [3] in a line: Mutagenicity in […] by Ames test in absence of […] fraction. In kind it is toxicity. On the technique in general: The Ames test detects mutagens through reverse mutation in bacteria.
Series [4] has as its target Sodium channel protein type 9 subunit alpha (Homo sapiens, UniProt Q15858). Nature of the series: Inhibition of NaV1.7 (unknown origin) by electrophysiology assay.
Series [5] is described as follows: Half life in rat at 0.76 mg/kg, iv and 2.3 mg/kg, po. In kind it is ADME, organism-based. As to conditions: in vivo.
The nature of series [6]: Unbound clearance in rat at 0.5 mg/kg, iv and 1 mg/kg, po. In kind it is ADME, organism-based. As to conditions: in vivo.
Series [7] is described as follows: Drug metabolism in human hepatocytes assessed as oxidation of chlorophenyl ring. In kind it is ADME, cell-based, Hepatocyte.
The next series deals with Rattus norvegicus. Nature of the series: Toxicity in rat assessed as increase in mitosis in collecting ducts at 300 mg/kg/day, po measured over 14 days by microscopic analysis. As to conditions: in vivo, 336 h. In kind it is organism-based.
Series [8] in a line: Toxicity in po dosed rat measured over 14 days. It counts as organism-based. As to conditions: in vivo.
Another series deals with Canis familiaris. In words: Hepatotoxicity in male dog assessed as pathological changes at >= 30 mg/kg/day, po measured over 14 days. It counts as toxicity, organism-based, Canis lupus familiaris. As to conditions: in vivo, 336 h.
Series [9] in a line: Average plasma concentration in rat at 30 mg/kg, po administered as single dose measured on day 14. It counts as ADME, organism-based. As to conditions: in vivo.

What is called pIC50 is the negative decadic logarithm of the IC50, by convention in mol/L. The fraction unbound is free concentration divided by total concentration. Low readings indicate little free substance, high ones much free substance. A word on the half-life: it is the time in which the quantity being followed falls by half. High values mean slow decline, low ones rapid decline.

pIC50: −log10 of the molar value.

Chain of Sodium channel protein type 9 subunit alpha (Q15858 whole entry): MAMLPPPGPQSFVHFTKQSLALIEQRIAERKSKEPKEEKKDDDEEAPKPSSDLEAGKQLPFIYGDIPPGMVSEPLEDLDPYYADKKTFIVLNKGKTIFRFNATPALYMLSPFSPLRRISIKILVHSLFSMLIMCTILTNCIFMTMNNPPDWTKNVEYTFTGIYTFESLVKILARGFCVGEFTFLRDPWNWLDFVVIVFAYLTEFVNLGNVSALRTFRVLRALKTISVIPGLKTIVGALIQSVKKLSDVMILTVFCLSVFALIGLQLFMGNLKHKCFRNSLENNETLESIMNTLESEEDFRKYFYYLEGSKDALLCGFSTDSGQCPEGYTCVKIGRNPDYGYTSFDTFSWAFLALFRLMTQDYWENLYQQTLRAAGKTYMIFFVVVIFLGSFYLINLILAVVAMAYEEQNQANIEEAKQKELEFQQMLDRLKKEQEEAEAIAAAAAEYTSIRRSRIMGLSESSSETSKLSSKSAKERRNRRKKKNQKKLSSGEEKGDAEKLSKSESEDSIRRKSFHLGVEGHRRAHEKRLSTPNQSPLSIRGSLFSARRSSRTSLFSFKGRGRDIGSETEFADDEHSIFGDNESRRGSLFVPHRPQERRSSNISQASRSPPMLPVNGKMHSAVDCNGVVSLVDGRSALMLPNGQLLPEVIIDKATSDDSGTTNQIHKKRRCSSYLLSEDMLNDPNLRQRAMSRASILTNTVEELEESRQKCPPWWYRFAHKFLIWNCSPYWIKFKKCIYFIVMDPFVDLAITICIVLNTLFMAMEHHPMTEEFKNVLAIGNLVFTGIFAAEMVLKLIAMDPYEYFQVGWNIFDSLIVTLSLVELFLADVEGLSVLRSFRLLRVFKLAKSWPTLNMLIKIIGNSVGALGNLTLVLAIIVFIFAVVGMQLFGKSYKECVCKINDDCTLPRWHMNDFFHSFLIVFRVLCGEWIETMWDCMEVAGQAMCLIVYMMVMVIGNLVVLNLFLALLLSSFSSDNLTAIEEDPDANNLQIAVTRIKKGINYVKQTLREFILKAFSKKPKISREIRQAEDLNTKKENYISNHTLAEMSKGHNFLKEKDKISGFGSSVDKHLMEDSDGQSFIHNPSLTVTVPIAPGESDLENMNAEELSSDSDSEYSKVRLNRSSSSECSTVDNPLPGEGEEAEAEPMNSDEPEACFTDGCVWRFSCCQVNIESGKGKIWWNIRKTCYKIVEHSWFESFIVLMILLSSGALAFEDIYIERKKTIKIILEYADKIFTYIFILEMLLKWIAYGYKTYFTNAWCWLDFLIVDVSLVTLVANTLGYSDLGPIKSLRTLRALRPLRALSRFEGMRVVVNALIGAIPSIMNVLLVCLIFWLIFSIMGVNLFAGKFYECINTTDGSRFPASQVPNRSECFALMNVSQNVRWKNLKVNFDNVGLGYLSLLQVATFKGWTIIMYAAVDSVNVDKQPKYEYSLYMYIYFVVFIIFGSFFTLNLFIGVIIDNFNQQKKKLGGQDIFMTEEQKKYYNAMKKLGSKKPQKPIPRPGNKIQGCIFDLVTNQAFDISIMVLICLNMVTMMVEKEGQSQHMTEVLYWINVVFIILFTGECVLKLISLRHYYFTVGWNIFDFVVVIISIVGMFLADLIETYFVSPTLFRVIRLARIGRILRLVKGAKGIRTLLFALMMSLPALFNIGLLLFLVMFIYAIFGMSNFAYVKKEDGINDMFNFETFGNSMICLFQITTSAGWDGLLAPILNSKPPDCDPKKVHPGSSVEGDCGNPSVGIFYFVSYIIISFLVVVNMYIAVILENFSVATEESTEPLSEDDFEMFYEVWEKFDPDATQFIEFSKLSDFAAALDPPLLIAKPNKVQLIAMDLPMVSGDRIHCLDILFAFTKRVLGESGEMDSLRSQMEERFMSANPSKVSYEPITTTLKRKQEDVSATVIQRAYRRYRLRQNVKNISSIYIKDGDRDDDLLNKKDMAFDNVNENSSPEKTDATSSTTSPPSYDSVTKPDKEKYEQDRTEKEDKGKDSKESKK

Consider `N#Cc1ccc(Oc2ccc(S(=O)(=O)Nc3ccc(F)cn3)cc2C#N)cc1Cl`, for which the pIC50 is 7.92 in series [1], 4.76 at Cytochrome P450 2C19, 4.76 on Cytochrome P450 3A4 and less than 4.52 in series [4]. In addition, the fraction unbound in series [2] came to 0.0041. In addition, the Activity entry in series [3] is “Non-Toxic”; in the series on Rattus norvegicus it was “Toxic”; in the series with Canis familiaris, “Non-Toxic”. The compound also gave a half-life in [5] of 7.1 h. For the same compound, the CL free in series [6] worked out at 95 mL/min/kg. Also, the Drug metabolism entry in series [7] is on record as “Metabolite_Detected”. Besides, in series [8], the MTD at 336 h was found to be 100 mg/kg. Further, the Cave in [9] was found to be 123 nM.
